Laboratory results from patent US6617118B2, “Monoclonal antibody for analysis and clearance of polyethylene glycol and polyethylene glycol-modified molecules” (priority 1999, dated 2003).

How the values were obtained:
LS174T cells = experiment: Drug sensitivity of LS174T cells ([3H]-leucine incorporation); settings: BHAMG plus 1 μg/well βG, 24 h
LS174T tumor xenografts = experiment: Therapy of LS174T tumor xenografts
Protocol: Therapy of LS174T Tumor Xenografts: Groups of 9 BALB/c nu/nu mice were s.c. injected on the right flank with 5×10^6 LS174T cells on day 1. […] 48 and 50 h later mice were i.v. injected with 2 sequential doses of 300 and 200 μg AGP3. […] Therapy was repeated starting on days 16, 26, and 41. All mice received 2-4 rounds of therapy. Tumor volumes (length×width×height×0.5) were measured twice a week and mice weight was followed as an estimate of treatment toxicity. […] Groups of 8 BALB/c nu/nu mice bearing larger 200-250 mm^3 tumors were also treated as above with 2 rounds of therapy starting on days 11 and 23.
Therapy was repeated starting on days 16, 26 and 41. […] Bars indicate the standard error of the mean. […] Soluble IgM immune complexes are primarily removed from the circulation and catabolized by the mononuclear phagocyte system in the liver, spleen and lungs by receptor-mediated binding of high mannose oligosaccharides exposed upon conformational changes in IgM induced by antigen binding (Day et al., 1980).

[1] = Toxicity of clearance and BHAMG prodrug administration; assay type: in vivo, BALB/c mice; settings: AGP3 and 15 mg/kg BHAMG, no βG-sPEG
Protocol: Toxicity of Clearance: The numbers of WBC, RBC, and PLT in groups of 6 BALB/c mice were measured as described (Chen et al., 1997) 1 day before i.v. injection of 50 μg of βG-PEG or PBS. […] On day 8, the numbers of WBC, RBC, and PLT in […] samples were determined. On days 3 and 10, the spleen, liver and kidney were removed from one mouse in each group and fixed in 10% formalin. Ethanol dehydrated samples were embedded in paraffin and cut into 3 μm sections. Sections were then dewaxed with xylene, stained with hematoxylin/eosin, and dehydrated before observation under a light microscope. The weight of mice was followed for 18 days.
One concern of employing IgM to clear proteins is that the immune complexes could be deposited in organs and cause tissue damage. In addition, deposition of βG-PEG on the surface of cells could result in prodrug activation and tissue toxicity. […] Mice were injected with PBS (A-C) or βG-sPEG (D-F) on day 1. […] Tissue sections of liver (A, D), kidney (B, E), and spleen (C, F) recovered 10 days later were stained with hematoxylin and eosin. […] Similarly, no tissue damage was observed 3 days after prodrug administration (results not shown).
Groups of 4 mice were i.v. injected at time zero with PBS (control) or βG-sPEG. […] Six hours later, all mice were i.v. injected with BHAMG. […]

In the case of `O=C(O)[C@H]1O[C@@H](Oc2ccc(N(CCCl)CCCl)cc2)[C@H](O)[C@@H](O)[C@@H]1O` [BHAMG], the “cytotoxic effect with simultaneous addition of βG” value (LS174T cells) is reported as “cytotoxic effect equal to pHAM alone”, the Weight loss % (LS174T tumor xenografts; Round of therapy 1) is reported as 1.7% and the Weight loss % (LS174T tumor xenografts; Round of therapy 2) is reported as 4.0%. For the same compound, the Weight loss % (LS174T tumor xenografts; Round of therapy 3) was 1.7% and the “weight of mice, control group” value [1] was “only a small transient decrease”.
